# Experimental data: the NIST ThermoML archive (doi:10.1016/j.fluid.2011.11.026)
# Numbers after ± are expanded uncertainties.
# Conditions: Liquid, Closed cell (Static) method
smiles,measurement,setting,value
COC [dimethyl ether],vapor or sublimation pressure,296.78 K,571.9 ± 1.2 kPa
same,vapor or sublimation pressure,303.46 K,690.2 ± 1.3 kPa
same,vapor or sublimation pressure,308.54 K,793.1 ± 1.5 kPa
same,vapor or sublimation pressure,312.26 K,875.3 ± 1.7 kPa
same,vapor or sublimation pressure,317.17 K,993.3 ± 1.8 kPa
same,vapor or sublimation pressure,322.08 K,1122 ± 2.1 kPa
same,vapor or sublimation pressure,327.08 K,1265.6 ± 2.3 kPa
same,vapor or sublimation pressure,332.09 K,1423.5 ± 2.6 kPa
same,vapor or sublimation pressure,337 K,1591.1 ± 2.9 kPa
same,vapor or sublimation pressure,341.97 K,1773.8 ± 3.2 kPa
same,vapor or sublimation pressure,347 K,1976.2 ± 3.5 kPa
same,vapor or sublimation pressure,351.89 K,2187.4 ± 3.9 kPa
same,vapor or sublimation pressure,356.91 K,2422.2 ± 4.2 kPa
same,vapor or sublimation pressure,361.94 K,2675.2 ± 4.7 kPa
same,vapor or sublimation pressure,366.96 K,2946.3 ± 5.1 kPa
same,vapor or sublimation pressure,371.84 K,3230.3 ± 5.6 kPa
same,vapor or sublimation pressure,376.91 K,3546.4 ± 6.1 kPa
same,vapor or sublimation pressure,379.82 K,3739 ± 6.4 kPa
same,vapor or sublimation pressure,382.88 K,3950.3 ± 6.8 kPa
same,vapor or sublimation pressure,385.83 K,4161.9 ± 7.1 kPa
same,vapor or sublimation pressure,387.81 K,4309.6 ± 7.4 kPa
same,vapor or sublimation pressure,389.81 K,4463.7 ± 7.6 kPa
same,vapor or sublimation pressure,391.86 K,4625.6 ± 7.9 kPa
same,vapor or sublimation pressure,393.81 K,4783 ± 8.1 kPa
same,vapor or sublimation pressure,395.74 K,4943.6 ± 8.4 kPa
FC(F)(F)C(F)(F)C(F)(F)C(F)(F)F [decafluorobutane],vapor or sublimation pressure,263.15 K,72.7 ± 0.5 kPa
same,vapor or sublimation pressure,268.12 K,89.6 ± 0.5 kPa
same,vapor or sublimation pressure,273.09 K,109.4 ± 0.5 kPa
same,vapor or sublimation pressure,278 K,132.4 ± 0.6 kPa
same,vapor or sublimation pressure,282.99 K,159 ± 0.6 kPa
same,vapor or sublimation pressure,287.91 K,189.3 ± 0.7 kPa
same,vapor or sublimation pressure,292.97 K,225.4 ± 0.8 kPa
same,vapor or sublimation pressure,297.95 K,265.3 ± 0.8 kPa
same,vapor or sublimation pressure,302.9 K,310.2 ± 0.9 kPa
same,vapor or sublimation pressure,308.21 K,364.3 ± 1.1 kPa
same,vapor or sublimation pressure,312.88 K,417.8 ± 1.2 kPa
same,vapor or sublimation pressure,317.88 K,481.2 ± 1.4 kPa
same,vapor or sublimation pressure,323.22 K,556.4 ± 1.5 kPa
same,vapor or sublimation pressure,328.15 K,633.7 ± 1.7 kPa
same,vapor or sublimation pressure,332.91 K,716.1 ± 2 kPa
same,vapor or sublimation pressure,337.93 K,811 ± 2.2 kPa
same,vapor or sublimation pressure,342.91 K,913 ± 2.5 kPa
same,vapor or sublimation pressure,347.93 K,1025.8 ± 2.8 kPa
same,vapor or sublimation pressure,352.92 K,1149.2 ± 3.1 kPa
same,vapor or sublimation pressure,357.1 K,1261.3 ± 3.4 kPa
same,vapor or sublimation pressure,363.13 K,1437.8 ± 3.8 kPa
same,vapor or sublimation pressure,368.03 K,1594.1 ± 4.3 kPa
same,vapor or sublimation pressure,373.25 K,1775.9 ± 4.7 kPa
same,vapor or sublimation pressure,376.88 K,1912.1 ± 5.1 kPa
same,vapor or sublimation pressure,379.05 K,1997.7 ± 5.3 kPa
